Data: US10947223B2, “Substituted oxazines as beta-secretase inhibitors” (AMGEN INC., priority 2016, dated 2021)

Key:
human recombinant BACE2 = human recombinant BACE2 (Homo sapiens (Human), UniProt Q9Y5Z0); assay: In vitro enzymatic BACE2 FRET assay; type: biochemical; conditions: pH 4.5, read-out: BACE2 Enzyme IC50
Method: (§1) In Vitro Enzymatic BACE1 and BACE2 FRET (Fluorescence Resonance Energy Transfer) Assays
(§2) The cDNAs for both human recombinant BACE1 and 2 with C-terminal 6-His Tags were cloned into transient protein expression vectors, which were subsequently transfected into mammalian cell lines. These recombinant proteins were further purified using Ni-NTA affinity chromatography (Qiagen). The assay buffer used in these screens was 0.05 M acetate, pH 4.5, 8% DMSO final, 100 μM genapol (which is a nonionic detergent, below its Critical Micelle Concentration). The β-secretase enzyme (0.02 nM for BACE1 and 0.64 nM for BACE2), which was pre-incubated for one hour with the test compound, typically in about 1 uL of DMSO according to a serial dilution, was added thereto. The assay was effectively started by the addition of FRET substrate (50 nM) and the combination was incubated for one hour. The FRET assay was terminated by the addition of tris buffer, which raised the pH to neutrality, and the fluorescence was determined. The FRET substrate was a peptide with commercially available fluorophore and quencher, on opposite sides of the BACE cleavage site. The specific FRET substrate used in this assay was made by Amgen in-house. Commercially available FRET substrates, for example, the FRET substrate offered with the BACE1 FRET Assay Kit sold by ThermoFisher Scientific (Catalog Number P2985), may be used in this assay with the appropriate modifications, which are within the purview of the ability of a person with ordinary skill in the art. Proteolytic cleavage of the FRET substrate released quenching of fluorescence (excitation 488 nm and emission 590 nm).

BACE1 [1] = target: T1, BACE1 (Homo sapiens (Human), UniProt P56817); assay: In vitro enzymatic BACE1 FRET assay; type: biochemical; conditions: pH 4.5, read-out: BACE1 Enzyme IC50
Method: as §1, §2
Target sequence in this assay (P56817 46-501): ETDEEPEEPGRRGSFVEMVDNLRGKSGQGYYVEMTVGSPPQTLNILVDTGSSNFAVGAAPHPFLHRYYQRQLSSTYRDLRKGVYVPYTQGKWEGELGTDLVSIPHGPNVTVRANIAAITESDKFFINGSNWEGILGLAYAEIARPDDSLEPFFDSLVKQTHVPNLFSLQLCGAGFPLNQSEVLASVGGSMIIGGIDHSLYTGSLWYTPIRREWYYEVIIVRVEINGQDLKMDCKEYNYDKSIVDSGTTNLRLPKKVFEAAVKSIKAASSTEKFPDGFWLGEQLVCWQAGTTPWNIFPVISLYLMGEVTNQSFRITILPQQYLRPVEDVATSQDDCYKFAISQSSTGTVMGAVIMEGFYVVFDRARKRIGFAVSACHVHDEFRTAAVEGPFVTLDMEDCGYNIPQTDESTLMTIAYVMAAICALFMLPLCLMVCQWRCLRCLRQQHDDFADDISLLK

BACE1 [2] = target: T1, BACE1; assay: In vitro BACE1 cell-based assay (Aβ40 in conditioned medium, HTRF); conditions: Aβ40 in conditioned medium of cells expressing APP, 24 h
Method: In Vitro BACE1 Cell-Based Assay
The cell-based assay measures inhibition or reduction of Aβ40 in conditioned medium of test compound treated cells expressing amyloid precursor protein. Cells stably expressing Amyloid Precursor Protein (APP) were plated at a density of 45K cells/well in 384 well plates (Corning/BioCoat 354663). The test compounds were then added to cells in 22-point dose response concentrations with the starting concentration being 62.5 μM. The compounds were diluted from stock solutions in DMSO and the final DMSO concentration of the test compounds on cells was 0.625%. The cells were cultivated overnight at 37° C. and 5% CO2 in DMEM supplemented with 10% FBS. After 24 h of incubation with the test compounds, the conditioned media was collected and the Aβ40 levels were determined using HTRF (Homogeneous Time Resolved Fluorescence). The IC50 of the compound was calculated from the percent of control or percent inhibition of Aβ 40 as a function of the concentration of the test compound.
The HTRF to detect Aβ40 was performed in 384 well plates (Costar 3658). The antibody pair that were used to detect Aβ 40 from cell supernatants were ConfAb40 antibody (Amgen in-house) and biotinylated 6E10 (BIOLEGEND). As an alternative to ConfAb40, a commercially available antibody, Anti-beta Amyloid 1-40 antibody [BDI350] from Abcam, Cambridge, Mass. 02139-1517 (Product code: ab20068), may be used in this assay. The concentrations were 0.35 μg/mL of ConfAb40 antibody and 1.33 μg/mL of 6E10-biotinylated antibody, as well as 4.5 μg/mL of Streptavidin Allophycocyanin Conjugate (ThermoFisher Scientific) in HTRF Buffer ([…], 1% BSA, 0.5% Tween 20).
The conditioned media was incubated with above antibodies and Streptavidin Allophycocyanin Conjugate for 30-60 minutes at 23° C. The final readout was performed on Envision from PerkinElmer.
Target sequence in this assay (P56817 46-501, species assumed): as the sequence (P56817 46-501) above

Recombinant CatD = Recombinant CatD (Homo sapiens (Human), UniProt P07339); assay: In vitro enzymatic Cathepsin D (CatD) FRET assay; type: biochemical; conditions: pH 3.5, read-out: CatD Enzyme IC50
Method: In Vitro Enzymatic Cathepsin D (CatD) FRET Assay
Recombinant CatD was expressed in CHO cells. The assay buffer for CatD was 0.05 M citrate pH 3.5, 10% DMSO final, 5 mM CHAPS. The CatD enzyme (9 nM) was pre-incubated for one hour with inhibitors, typically in about 1 uL of DMSO according to a serial dilution, is added thereto. The assays was effectively started by the addition of different FRET substrates (20 nM for CatD) and the combination was incubated for one hour. The FRET assay was terminated with by addition of tris buffer, which raises the pH to neutrality, and the fluorescence was determined. The FRET substrate was a peptide with commercially available fluorophore and quencher, on opposite sides of the CatD cleavage site. The CatD substrate peptide sequence was based on sequence #1 of Table 1 from Gulnik et al., FEBS Lett. 413(2):379-384 (1997). Proteolytic cleavage of the FRET substrate released quenching of fluorescence (CatD excitation 500 nm and emission 580 nm).
The in vitro CatD FRET assay data for each of the Examples is provided in Table 2, conducted by the first procedure described above. […] Thus, with this surprising selectivity profile, the compounds provided herein are believed to minimize, reduce or completely eliminate any risk of retinal atrophy and abnormal development of the eye and of the retinal pigmented epithelium as it relates to the normal function and activity of CatD.

human recombinant BACE2, sequence (Q9Y5Z0 63-518): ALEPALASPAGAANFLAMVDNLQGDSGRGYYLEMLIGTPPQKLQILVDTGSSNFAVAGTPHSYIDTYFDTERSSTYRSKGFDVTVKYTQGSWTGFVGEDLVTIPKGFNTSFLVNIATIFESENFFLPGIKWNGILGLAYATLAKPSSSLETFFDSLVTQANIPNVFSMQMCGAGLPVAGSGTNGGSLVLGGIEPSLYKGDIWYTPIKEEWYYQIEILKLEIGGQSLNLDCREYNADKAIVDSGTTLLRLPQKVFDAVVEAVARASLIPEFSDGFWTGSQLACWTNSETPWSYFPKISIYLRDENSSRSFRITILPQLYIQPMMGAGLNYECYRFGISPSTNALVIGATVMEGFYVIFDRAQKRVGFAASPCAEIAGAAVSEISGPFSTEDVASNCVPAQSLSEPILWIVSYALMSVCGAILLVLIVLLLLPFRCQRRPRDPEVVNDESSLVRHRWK
Recombinant CatD, sequence (P07339 65-412): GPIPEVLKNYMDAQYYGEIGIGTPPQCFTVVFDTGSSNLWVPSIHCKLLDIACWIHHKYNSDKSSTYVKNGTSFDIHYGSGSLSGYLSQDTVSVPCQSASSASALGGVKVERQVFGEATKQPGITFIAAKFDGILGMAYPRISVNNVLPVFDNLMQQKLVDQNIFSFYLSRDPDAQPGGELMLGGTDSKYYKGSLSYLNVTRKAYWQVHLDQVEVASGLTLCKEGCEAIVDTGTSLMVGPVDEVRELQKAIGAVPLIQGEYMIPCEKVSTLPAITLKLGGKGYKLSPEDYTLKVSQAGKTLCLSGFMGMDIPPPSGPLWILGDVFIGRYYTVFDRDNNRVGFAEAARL

IC50 (human recombinant BACE2) [µM] | IC50 (BACE1 [1]) [µM] | IC50 (BACE1 [2]) [µM] | IC50 (Recombinant CatD) [µM] | Compound
0.273 | 0.046 | 0.13 | 415 | C[C@@]1(c2cc(/C=C(\F)c3cnc(C#N)cn3)ccc2F)CO[C@@](C)(C(F)(F)F)C(N)=N1 [Example 105, 5-((Z)-2-(3-((3R,6R)-5-amino-3,6-dimethyl-6-(trifluoromethyl)-3,6-dihydro-2H-1,4-oxazin-3-yl)-4-fluorophenyl)-1-fluorovinyl)pyrazine-2-carbonitrile]
1.59 | 0.666 | 4.13 | 88.4 | C[C@@]1(c2cc(/C=C(\F)c3cnc(OCC(F)(F)C(F)F)cn3)ccc2F)CO[C@@](C)(C(F)(F)F)C(N)=N1 [Example 106, (2R,5R)-5-(2-fluoro-5-((Z)-2-fluoro-2-(5-(2,2,3,3-tetrafluoropropoxy)pyrazin-2-yl)vinyl)phenyl)-2,5-dimethyl-2-(trifluoromethyl)-5,6-dihydro-2H-1,4-oxazin-3-amine]
0.375 | 0.05 | 0.112 | 82.5 | C#CCOc1cnc(/C(F)=C/c2ccc(F)c([C@]3(C)CO[C@@](C)(C(F)(F)F)C(N)=N3)c2)cn1 [Example 107, (2R,5R)-5-(2-fluoro-5-((Z)-2-fluoro-2-(5-(prop-2-yn-1-yloxy)pyrazin-2-yl)vinyl)phenyl)-2,5-dimethyl-2-(trifluoromethyl)-5,6-dihydro-2H-1,4-oxazin-3-amine]
0.033 | 0.118 | 0.663 | 39.3 | C[C@@]1(c2cc(/C=C(\F)c3cnc(Cl)cn3)ccc2F)CO[C@@](C)(C(F)(F)F)C(N)=N1 [Example 108, (2R,5R)-5-(5-((Z)-2-(5-chloropyrazin-2-yl)-2-fluorovinyl)-2-fluorophenyl)-2,5-dimethyl-2-(trifluoromethyl)-5,6-dihydro-2H-1,4-oxazin-3-amine]
3.87 | 0.125 | 0.014 | 1190 | C[C@]1(c2cc(/C=C(\F)c3ccc(C#N)cn3)ccc2F)N=C(N)OC[C@@H]1OCC(F)(F)F [Example 109, 6-((Z)-2-(3-((4R,5R)-2-amino-4-methyl-5-(2,2,2-trifluoroethoxy)-5,6-dihydro-4H-1,3-oxazin-4-yl)-4-fluorophenyl)-1-fluorovinyl)nicotinonitrile]
1.51 | 0.341 | 0.09 | 524 | C[C@]1(c2cc(/C=C(\F)c3cnc(Cl)cn3)ccc2F)N=C(N)OC[C@@H]1OCC(F)(F)F [Example 110, (4R,5R)-4-(5-((Z)-2-(5-chloropyrazin-2-yl)-2-fluorovinyl)-2-fluorophenyl)-4-methyl-5-(2,2,2-trifluoroethoxy)-5,6-dihydro-4H-1,3-oxazin-2-amine]
17.1 | 0.052 | 0.048 | 233 | CC#CCOc1cnc(/C(F)=C/c2ccc(F)c([C@@]3(C)N=C(N)OC[C@@H]3OCC(F)(F)F)c2)cn1 [Example 113, (4R,5R)-4-(5-((Z)-2-(5-(but-2-yn-1-yloxy)pyrazin-2-yl)-2-fluorovinyl)-2-fluorophenyl)-4-methyl-5-(2,2,2-trifluoroethoxy)-5,6-dihydro-4H-1,3-oxazin-2-amine]

Continued, compound first:

Compound | IC50 (human recombinant BACE2) [µM] | IC50 (BACE1 [1]) [µM] | IC50 (BACE1 [2]) [µM] | IC50 (Recombinant CatD) [µM]
NC1=N[C@@](c2cc(/C=C(\F)c3ccc(Br)cn3)ccc2F)(C(F)F)[C@H]2C[C@H]2O1 [Example 100, (1R,5S,6R)-5-(5-((Z)-2-(5-bromopyridin-2-yl)-2-fluorovinyl)-2-fluorophenyl)-5-(difluoromethyl)-2-oxa-4-azabicyclo[4.1.0]hept-3-en-3-amine] | 0.564 | 0.257 | 0.948 | 63.9
NC1=N[C@@](c2cc(/C=C(\F)c3ccc(Cl)cn3)ccc2F)(C(F)F)[C@H]2C[C@H]2O1 [Example 101, (1R,5S,6R)-5-(5-((Z)-2-(5-chloropyridin-2-yl)-2-fluorovinyl)-2-fluorophenyl)-5-(difluoromethyl)-2-oxa-4-azabicyclo[4.1.0]hept-3-en-3-amine] | 0.421 | 0.954 | 1.12 | 215
N#Cc1ccc(/C(F)=C/c2ccc(F)c([C@@]3(C(F)F)N=C(N)O[C@@H]4C[C@@H]43)c2)nc1 [Example 102, 6-((Z)-2-(3-((1R,5S,6R)-3-amino-5-(difluoromethyl)-2-oxa-4-azabicyclo[4.1.0]hept-3-en-5-yl)-4-fluorophenyl)-1-fluorovinyl)nicotinonitrile] | 1.62 | 0.152 | 0.344 | 222
C[C@@]1(c2cc(/C=C(\F)c3ccc(Cl)cn3)ccc2F)CO[C@@](C)(C(F)(F)F)C(N)=N1 [Example 103, (2R,5R)-5-(5-((Z)-2-(5-chloropyridin-2-yl)-2-fluorovinyl)-2-fluorophenyl)-2,5-dimethyl-2-(trifluoromethyl)-5,6-dihydro-2H-1,4-oxazin-3-amine] | 0.017 | 0.065 | 0.693 | 19.2
C[C@@]1(c2cc(/C=C(\F)c3ccc(C#N)cn3)ccc2F)CO[C@@](C)(C(F)(F)F)C(N)=N1 [Example 104, 6-((Z)-2-(3-((3R,6R)-5-amino-3,6-dimethyl-6-(trifluoromethyl)-3,6-dihydro-2H-1,4-oxazin-3-yl)-4-fluorophenyl)-1-fluorovinyl)nicotinonitrile] | 0.095 | 0.026 | 0.152 | 204
C#CCOc1cnc(/C(F)=C/c2ccc(F)c([C@@]3(C)N=C(N)OC[C@@H]3OCC(F)(F)F)c2)cn1 [Example 111, (4R,5R)-4-(2-fluoro-5-((Z)-2-fluoro-2-(5-(prop-2-yn-1-yloxy)pyrazin-2-yl)vinyl)phenyl)-4-methyl-5-(2,2,2-trifluoroethoxy)-5,6-dihydro-4H-1,3-oxazin-2-amine] | 16 | 0.152 | 0.059 | 664
C[C@]1(c2cc(/C=C(\F)c3cnc(C#N)cn3)ccc2F)N=C(N)OC[C@@H]1OCC(F)(F)F [Example 112, 5-((Z)-2-(3-((4R,5R)-2-amino-4-methyl-5-(2,2,2-trifluoroethoxy)-5,6-dihydro-4H-1,3-oxazin-4-yl)-4-fluorophenyl)-1-fluorovinyl)pyrazine-2-carbonitrile] | 6.36 | 0.119 | 0.027 | 970
